Experimental data from PubChem BioAssay (NCI).
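Five concentrations, 48 hours, 96-well plates. TGI denotes the concentration required for complete inhibition of growth.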

Tests used:
Experiment in all cases: NCI anticancer screen, dose series, 48 h
[1] = system: UACC-257 melanoma
[2] = system: HOP-92 NSCLC
[3] = system: U251 CNS
[4] = system: CAKI-1 renal
[5] = system: SF-295 CNS
[6] = system: K-562 leukemia
[7] = system: OVCAR-8 ovarian
[8] = system: SNB-19 CNS
[9] = system: RPMI-8226 leukemia
[10] = system: 786-0 renal
[11] = system: SK-MEL-28 melanoma
[12] = system: M14 melanoma
[13] = system: HOP-62 NSCLC
[14] = system: COLO 205 colon
[15] = system: OVCAR-4 ovarian
[16] = system: MALME-3M melanoma
[17] = system: IGROV1 ovarian
[18] = system: M19-MEL melanoma
[19] = system: OVCAR-3 ovarian
[20] = system: SNB-78 CNS
[21] = system: HT29 colon
[22] = system: OVCAR-5 ovarian
[23] = system: KM12 colon
[24] = system: NCI-H460 lung
[25] = system: TK-10 renal
[26] = system: HCC-2998 colon
[27] = system: HCT-116 colon
[28] = system: ACHN renal
[29] = system: A549 NSCLC
[30] = system: DLD-1 colon
[31] = system: DMS 273 small cell lung
[32] = system: RXF 393 renal
[33] = system: SNB-75 CNS
[34] = system: HL-60(TB) leukemia
[35] = system: UO-31 renal
[36] = system: XF 498 CNS
[37] = system: NCI-H23 lung
[38] = system: HCT-15 colon
[39] = system: SN12C renal
[40] = system: KM20L2 colon
[41] = system: SK-MEL-2 melanoma
[42] = system: UACC-62 melanoma
[43] = system: MOLT-4 leukemia
[44] = system: SF-539 CNS
[45] = system: SK-MEL-5 melanoma
[46] = system: SR leukemia
[47] = system: LXFL 529 NSCLC
[48] = system: A498 renal
[49] = system: HOP-18 NSCLC
[50] = system: NCI-H226 lung
[51] = system: SK-OV-3 ovarian
[52] = system: CCRF-CEM leukemia
[53] = system: EKVX NSCLC
[54] = system: SW-620 colon
[55] = system: LOX IMVI melanoma
[56] = system: DU-145 prostate
[57] = system: MDA-MB-231 breast
[58] = system: HS 578T breast
[59] = system: PC-3 prostate
[60] = system: BT-549 breast
[61] = system: NCI/ADR-RES ovarian
[62] = system: SF-268 CNS
[63] = system: MDA-MB-435
[64] = system: NCI-H522 lung

Compound O=C(Nc1ccccc1)OCc1nc2c([nH]1)C(=O)C=CC2=O has a TGI [1] of 13.7 µM, a TGI [2] of 45.1 µM and a TGI [3] of 25.5 µM. The TGI [4] was 13.4 µM, the TGI [5] was 33.1 µM and the TGI [6] was 7.36 µM. For the same compound, the TGI [7] was 34 µM, the TGI [8] was 28.5 µM and the TGI [9] was 51.1 µM. It also gave a TGI [10] of 32.5 µM, a TGI [11] of 30.5 µM and a TGI [12] of 29.8 µM. For the same compound, the TGI [13] was > 100 µM, the TGI [14] was 3.94 µM and the TGI [15] was 28 µM. The TGI [16] was 18.3 µM, the TGI [17] was 30.7 µM and the TGI [18] was 29.5 µM. The TGI [19] was 30.8 µM, the TGI [20] was 45.3 µM and the TGI [21] was 58.5 µM. The TGI [22] was 36.8 µM, the TGI [23] was 29 µM and the TGI [24] was 36.8 µM. The TGI [25] was 27 µM, the TGI [26] was 30.1 µM and the TGI [27] was 28.4 µM. The TGI [28] was 25.2 µM, the TGI [29] was 31.9 µM and the TGI [30] was > 100 µM. The TGI [31] was 42 µM, the TGI [32] was 23 µM and the TGI [33] was 37.1 µM. It also gave a TGI [34] of 15.2 µM, a TGI [35] of 30.5 µM and a TGI [36] of 30.9 µM. It also gave a TGI [37] of 40 µM, a TGI [38] of 38 µM and a TGI [39] of 36.3 µM. For the same compound, the TGI [40] was 41 µM, the TGI [41] was 34.2 µM and the TGI [42] was 36.9 µM. The TGI [43] was 6.71 µM, the TGI [44] was > 100 µM and the TGI [45] was 27.3 µM. It also gave a TGI [46] of 51.7 µM, a TGI [47] of 11.1 µM and a TGI [48] of 30.1 µM. The TGI [49] was 23 µM, the TGI [50] was 33.3 µM and the TGI [51] was 29.3 µM. It also gave a TGI [52] of 13.1 µM, a TGI [53] of 41 µM and a TGI [54] of 8.79 µM. For the same compound, the TGI [55] was 30.9 µM.
With COc1ccc(CC(C#N)c2cc(OC)c(OC)c(OC)c2)cc1 (centres undefined) the TGI [1] was > 100 µM, the TGI [2] was 16.7 µM and the TGI [3] was 6.32 µM. For the same compound, the TGI [4] was > 81 µM, the TGI [5] was 0.0783 µM and the TGI [6] was > 47.4 µM. For the same compound, the TGI [7] was 13 µM, the TGI [8] was > 100 µM and the TGI [9] was 46.6 µM. For the same compound, the TGI [10] was > 100 µM, the TGI [11] was > 100 µM and the TGI [12] was > 100 µM. For the same compound, the TGI [13] was > 100 µM, the TGI [14] was 0.133 µM and the TGI [15] was > 100 µM. For the same compound, the TGI [56] was 1.82 µM, the TGI [16] was > 100 µM and the TGI [57] was 3.29 µM. For the same compound, the TGI [17] was > 100 µM, the TGI [18] was > 100 µM and the TGI [19] was 0.113 µM. The TGI [20] was > 100 µM, the TGI [21] was 5.72 µM and the TGI [22] was > 96.9 µM. For the same compound, the TGI [23] was 4.95 µM, the TGI [58] was > 100 µM and the TGI [24] was 21 µM. For the same compound, the TGI [25] was > 100 µM, the TGI [27] was 3.88 µM and the TGI [28] was > 91.6 µM. For the same compound, the TGI [29] was > 100 µM, the TGI [30] was > 100 µM and the TGI [59] was > 100 µM. The TGI [31] was 0.405 µM, the TGI [33] was > 100 µM and the TGI [34] was 0.125 µM. For the same compound, the TGI [35] was > 100 µM, the TGI [36] was 28.6 µM and the TGI [37] was 1.96 µM. The TGI [60] was > 100 µM, the TGI [38] was 11 µM and the TGI [61] was > 100 µM. The TGI [39] was > 79.9 µM, the TGI [40] was 0.195 µM and the TGI [62] was > 71.4 µM. The TGI [41] was > 100 µM, the TGI [42] was > 100 µM and the TGI [43] was > 100 µM. The TGI [44] was 0.231 µM, the TGI [45] was 2.7 µM and the TGI [46] was 2.15 µM. The TGI [47] was > 100 µM, the TGI [63] was > 100 µM and the TGI [50] was 14.3 µM. The TGI [52] was > 100 µM, the TGI [53] was > 100 µM and the TGI [64] was 0.135 µM. For the same compound, the TGI [54] was > 100 µM and the TGI [55] was > 100 µM.
